Measured values published in patent publication US8217085B2 (priority 2009, dated 2012).
Like-named read-outs stand apart in the source and are kept apart here.

How the values were obtained:
[1] = tested on: ATCC strain 43300 Staphylococcus aureus; format: cell-based
[2] = room temperature; cited from earlier work
[3] = tested on: ATCC strain 43300 Staphylococcus aureus; settings: 24 hours
Experimental: All concentrations were plated out to the 10^−7 dilutions to ascertain cfu/ml.
ATCC strain 43300 Staphylococcus aureus was streaked out for isolations and 25 clones were picked and diluted to a McFarland standard of one. The estimated value was then taken to inoculate tubes containing growth media and 12, 30 or 60 μg/ml methicillin or oxacillin with around 10^−7 cfu/tube.
Material was calculated on a 10 ml volume. Sterile oxacillin or methicillin was added to each experimental condition to a final concentration of 12, 30 or 60 μg/ml antibiotic.
All tubes were then inoculated with a dilution of the selected ATCC strain 43300 Staphylococcus aureus clone giving a final level of colony forming units of 9.4×10^7/ml (log=7.97). The tubes were incubated at 25° C. and mixed periodically. […] Plating was done at 24 hours. Each condition was plated by diluting 1 ml of growth material into 9 ml of MLB diluent broth. This mixture was serial diluted down to 10^−7, and 1 ml placed in a sterile petri dish at each dilution point. 20 mls of TSA was added to each dilution, swirled and allowed to solidify. All dilutions were placed in a 35° C. incubator for 24 hours. Bacterial colonies on each plate were counted and colony counts changed into log format. A positive and negative control was ascertained.

[4] = tested on: ATCC strain 43300 Staphylococcus aureus; settings: for average log reduction in cfu/ml: 48 hours; for Log reduction in cfu/ml: 120 hours
Experimental: This is the MIC for oxacillin and methicillin for this strain of bacteria.
USP<51> Antimicrobial Effectiveness protocol was used as the template experimental paradigm. […] All concentrations were plated out to the 10^−7 dilutionsto ascertain cfu/ml. […] This concentration is the industry standard for determining MRSA resistance in clinical applications.
Material was calculated on a 10 ml volume. Sterile oxacillin or methicillin was added to each experimental condition daily at 300 μl from a 30 mg/10 ml concentration giving it an initial final concentration of 6 μg/ml.
All tubes were inoculated with a dilution of MRSA giving a final level of colony forming units of 2.13×10^6/ml (Log=6.3). The tubes were incubated at 25° C. and mixed periodically. Plating was done at 24 hours, 48 hours and 5 days. Each condition was plated by diluting 1 ml of growth material into 9 ml of MLB diluent broth. This mixture was serial diluted down to 10^−7, and 1 ml placed in a sterile petri dish at each dilution point. 20 mls of TSA was added to each dilution, swirled and allowed to solidify. All dilutions were placed in a 35° C. incubator for 24 hours. Bacterial colonies on each plate were counted and colony counts changed into log format. A positive and negative control was ascertained.

SMILES: CS(C)(=O)=O [MSM, methylsulfonylmethane]
- recovery of MRSA after enrichment ([1]; 5% MSM, 60 μg/ml methicillin, 72 hours): true total kill
- recovery of MRSA after enrichment ([1]; 6% MSM, 12 μg/ml methicillin, 72 hours): true total kill
- recovery of MRSA after enrichment ([1]; 6% MSM, 60 μg/ml methicillin, 72 hours): true total kill
- recovery of MRSA after enrichment ([1]; 7% MSM, 12 μg/ml methicillin, 72 hours): true total kill
- recovery of MRSA after enrichment ([1]; 8% MSM, 12 μg/ml methicillin, 96 hours): true total kill
- recovery of MRSA after enrichment ([1]; 10% MSM, 30 μg/ml methicillin, 120 hours): true total kill
- recovery of MRSA after enrichment ([1]; 11% MSM, 30 μg/ml methicillin, 120 hours): true total kill
- recovery of MRSA after enrichment ([1]; 11% MSM, 60 μg/ml methicillin, 120 hours): true total kill
- recovery of MRSA after enrichment ([1]; 12% MSM, 30 μg/ml methicillin, 120 hours): true total kill
- recovery of MRSA after enrichment ([1]; 12% MSM, 60 μg/ml methicillin, 120 hours): true total kill
- recovery of MRSA after enrichment ([1]; 14% MSM, 60 μg/ml methicillin, 120 hours): true total kill
- recovery of MRSA after enrichment ([1]; 15% MSM, 60 μg/ml methicillin, 120 hours): true total kill
- recovery of MRSA after enrichment ([1]; 16% MSM, 30 μg/ml methicillin, 120 hours): true total kill
- water solubility [2]: ≥ 20%
- average log reduction in cfu/ml ([3]; 5% MSM with antibiotic (12, 30 or 60 μg/ml oxacillin or methicillin)): 2.2 log
- average log reduction in cfu/ml ([3]; 16% MSM with antibiotic (barring methicillin 60 μg/ml outlier)): 3.3 log
- average log reduction in cfu/ml ([4]; initial 5% MSM, 6 μg/ml methicillin): 2.7 log
- average log reduction in cfu/ml ([4]; initial 8% MSM, 6 μg/ml oxacillin): 2.7 log
- Log reduction in cfu/ml ([4]; initial 13-16% MSM, 6 μg/ml methicillin): ~3.5 log
- Log reduction in cfu/ml ([4]; initial 14-16% MSM, 6 μg/ml oxacillin): ~3.3 log
- average log reduction in cfu/ml ([4]; initial 16% MSM, 6 μg/ml methicillin): 2.1 log
- average log reduction in cfu/ml ([4]; initial 16% MSM, 6 μg/ml oxacillin): 2.1 log
